Where two headings read alike, the source gives them in different places. Numbered stars: 1 amine (or outer) side, 2 acyl side, 3 side chain; on linkers, the order of the positions; unused ones are H or OH. Bridge positions count the residues as written; N and C are the ends. Square brackets hold non-standard residues; d marks the D form. Peptide text beside a SMILES is read from it. * marks the point of attachment. Trp(βS-Me,7-OMe) = COc1cccc2c([C@H](C)[C@H](N)C(=O)O)c[nH]c12; Phe(4-CH2CH2COOH) = N[C@@H](Cc1ccc(CCC(=O)O)cc1)C(=O)O; Phe(4-SO2NH2) = N[C@@H](Cc1ccc(S(N)(=O)=O)cc1)C(=O)O; Phe(2-F,4-COOH) = N[C@@H](Cc1ccc(C(=O)O)cc1F)C(=O)O; Trp(7-CN) = N#Cc1cccc2c(C[C@H](N)C(=O)O)c[nH]c12; Trp(7-Cl) = N[C@@H](Cc1c[nH]c2c(Cl)cccc12)C(=O)O; Phe(4-CONH2) = NC(=O)c1ccc(C[C@H](N)C(=O)O)cc1; Phe(4-COOH) = N[C@@H](Cc1ccc(C(=O)O)cc1)C(=O)O; Trp(7-aza) = N[C@@H](Cc1c[nH]c2ncccc12)C(=O)O; Pip(5R-OH) = O=C(O)[C@@H]1CC[C@@H](O)CN1; X1 = O=C([C@@H]1CC[C@H](N[*:1])C1)[*:2]; NMeT = CN[C@H](C(=O)O)[C@@H](C)O; 4Pal = N[C@@H](Cc1ccncc1)C(=O)O; NMeE = CN[C@@H](CCC(=O)O)C(=O)O; dHyp = O=C(O)[C@H]1C[C@H](O)CN1; NEtAla = CCN[C@@H](C)C(=O)O; αMeS = C[C@](N)(CO)C(=O)O; Carboxymethyl = O=C(O)C*; Nle = CCCC[C@H](N)C(=O)O; Sar = CNCC(=O)O
Tests used:
human TNFR2 ECD protein = target: T1, human TNFR2 ECD protein (Homo sapiens, UniProt P20333); experiment: SPR off-target binding (selectivity) to human TNFR2 ECD
T1 construct: HRV 3C protease cleavage site (C); 6His (C, cleaved yes); made in house; host or cells: Sf21 insect cells (baculovirus), secreted
T1 sequence (P20333 23-257): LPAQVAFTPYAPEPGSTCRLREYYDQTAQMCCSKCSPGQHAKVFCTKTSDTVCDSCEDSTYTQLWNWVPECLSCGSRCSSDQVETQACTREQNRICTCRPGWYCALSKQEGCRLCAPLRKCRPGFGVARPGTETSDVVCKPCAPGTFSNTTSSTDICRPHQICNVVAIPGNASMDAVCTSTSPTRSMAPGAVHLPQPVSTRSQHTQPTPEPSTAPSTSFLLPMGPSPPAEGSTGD
Outline: (§1)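 Peptide binding kinetics read by SPR in HEPES pH 7.4 running buffer with 2% DMSO, with TNFR2 ECD tested in parallel for off-target binding. Receptor ECDs, insect-cell expressed and biotinylated at C-terminal avi-tag, were captured via streptavidin. KA derived from association and dissociation rate constants.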

[1] = target: T2, TNFα-induced NF-κB signal transduction pathway (TNFR1 signaling) in THP-1 cells (Homo sapiens, UniProt P19438); experiment: THP-1 Lucia NF-κB reporter cell assay, inhibition of TNFα-induced NF-κB signaling; assay type: cell-based; conditions: THP-1 NF-κB Lucia reporter cells, 10 ng/mL TNFα, 16-18 h, secreted luciferase; read-out: THP-1 IC50
T2 sequence (P19438 30-455): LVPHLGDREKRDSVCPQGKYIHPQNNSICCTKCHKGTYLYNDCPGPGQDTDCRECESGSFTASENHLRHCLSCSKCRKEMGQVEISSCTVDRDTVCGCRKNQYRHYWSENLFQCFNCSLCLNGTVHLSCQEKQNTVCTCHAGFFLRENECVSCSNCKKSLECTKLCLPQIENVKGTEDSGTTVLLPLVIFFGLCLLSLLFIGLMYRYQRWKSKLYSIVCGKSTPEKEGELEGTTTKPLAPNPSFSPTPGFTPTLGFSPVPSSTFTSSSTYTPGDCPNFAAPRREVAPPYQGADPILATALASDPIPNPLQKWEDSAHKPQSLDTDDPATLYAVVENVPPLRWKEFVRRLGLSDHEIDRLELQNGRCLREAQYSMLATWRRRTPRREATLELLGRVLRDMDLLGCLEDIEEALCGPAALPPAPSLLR
Outline: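 Read-out: secreted Lucia luciferase luminescence (QUANTI-Luc) from supernatant after 16-18 h, 37 °C, 10 ng/mL rhTNFα. Peptide pretreatment 1 h at 37 °C; 20,000 cells/well, selection antibiotics omitted. IC50 via 4-parameter logistic model against min/max controls.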

[2] = target: T3, human TNFR1 extracellular domain (ECD) protein (Homo sapiens, UniProt P19438); experiment: SPR binding affinity to captured human TNFR1 ECD
T3 construct: HRV 3C protease cleavage site (C); 6His (C, cleaved yes); made in house; host or cells: Sf21 insect cells (baculovirus), secreted
T3 sequence (P19438 30-211): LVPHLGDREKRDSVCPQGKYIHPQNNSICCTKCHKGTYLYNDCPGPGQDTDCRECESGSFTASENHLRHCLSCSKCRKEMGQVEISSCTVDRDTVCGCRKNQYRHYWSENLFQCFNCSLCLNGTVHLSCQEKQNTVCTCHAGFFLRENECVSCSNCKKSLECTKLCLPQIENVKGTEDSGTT
Outline: as §1

[3] = biotinylated human TNFR2 ECD on streptavidin chip, read-out: SPR hTNFR2 KD
[4] = biotinylated human TNFR1 ECD on streptavidin chip, from kon and koff, read-out: SPR hTNFR1 KD

| SMILES | Kd (human TNFR2 ECD protein) | IC50 [1] | Kd [2] | Kd (human TNFR2 ECD protein; [3]) | Kd [2, 4] |
| --- | --- | --- | --- | --- | --- |
| CCCC[C@@H]1NC(=O)CSC[C@@H](C(N)=O)NC(=O)[C@H]([C@@H](C)c2c[nH]c3c(OC)cccc23)NC(=O)CN(C)C(=O)[C@H](Cc2ccc(O)cc2)NC(=O)[C@H](Cc2ccc(C(=O)O)cc2)NC(=O)[C@](C)(CO)NC(=O)[C@H](Cc2c[nH]c3c(Cl)cccc23)NC(=O)[C@H](Cc2ccncc2)NC(=O)[C@H](CC(N)=O)NC(=O)[C@H](CCC(=O)O)N(C)C(=O)[C@H](Cc2c[nH]c3ncccc23)NC(=O)[C@H]([C@@H](C)O)N(C)C(=O)[C@H](Cc2ccncc2)NC1=O [SEQ ID NO. 29] ({CH2CO}-[Nle][4Pal][NMeT][Trp(7-aza)][NMeE]N[4Pal][Trp(7-Cl)][αMeS][Phe(4-COOH)]Y[Sar][Trp(βS-Me,7-OMe)]C-NH2; thioether N-14) | > 1000 nM | 3.3 nM | 0.28 nM |  |  |
| CCCC[C@@H]1NC(=O)[C@@H]2CC[C@@H](C2)NC(=O)[C@H]([C@@H](C)c2c[nH]c3c(OC)cccc23)NC(=O)CN(C)C(=O)[C@H](Cc2ccc(CCC(=O)O)cc2)NC(=O)[C@H](Cc2ccc(S(N)(=O)=O)cc2)NC(=O)[C@](C)(CO)NC(=O)[C@H](Cc2c[nH]c3c(C#N)cccc23)NC(=O)[C@H](Cc2ccc(OCC(=O)O)cc2)NC(=O)[C@H](CC(N)=O)NC(=O)[C@H]2C[C@H](O)CN2C(=O)[C@H](Cc2c[nH]c3ncccc23)NC(=O)[C@@H]2CC[C@@H](O)CN2C(=O)[C@H](Cc2ccncc2)NC1=O [SEQ ID NO. 30] (cyclo([4Pal][Pip(5R-OH)][Trp(7-aza)][dHyp]NY(Carboxymethyl)[Trp(7-CN)][αMeS][Phe(4-SO2NH2)][Phe(4-CH2CH2COOH)][Sar][Trp(βS-Me,7-OMe)][X1][Nle])) |  | 0.5 nM |  | > 1000 nM | 0.05 nM |
| CCCC[C@@H]1NC(=O)CSC[C@@H](C(N)=O)NC(=O)[C@H]([C@@H](C)c2c[nH]c3c(OC)cccc23)NC(=O)CN(C)C(=O)[C@H](Cc2ccc(O)cc2)NC(=O)[C@H](Cc2ccc(C(=O)O)cc2)NC(=O)[C@](C)(CO)NC(=O)[C@H](Cc2c[nH]c3c(Cl)cccc23)NC(=O)[C@H](Cc2ccncc2)NC(=O)[C@H](CC(N)=O)NC(=O)[C@H](CCC(=O)O)N(C)C(=O)[C@H](Cc2c[nH]c3ncccc23)NC(=O)[C@H](C)N(CC)C(=O)[C@H](Cc2ccncc2)NC1=O [SEQ ID NO. 38] ({CH2CO}-[Nle][4Pal][NEtAla][Trp(7-aza)][NMeE]N[4Pal][Trp(7-Cl)][αMeS][Phe(4-COOH)]Y[Sar][Trp(βS-Me,7-OMe)]C-NH2; thioether N-14) | > 1000 nM | 3.1 nM | 0.34 nM |  |  |
| CCCC[C@@H]1NC(=O)[C@@H]2CC[C@@H](C2)NC(=O)[C@H]([C@@H](C)c2c[nH]c3c(OC)cccc23)NC(=O)CN(C)C(=O)[C@H](Cc2ccc(C(=O)O)cc2F)NC(=O)[C@H](Cc2ccc(C(N)=O)cc2)NC(=O)[C@](C)(CO)NC(=O)[C@H](Cc2c[nH]c3c(Cl)cccc23)NC(=O)[C@H](Cc2ccc(C(=O)O)cc2F)NC(=O)[C@H](CC(N)=O)NC(=O)[C@H]2C[C@H](O)CN2C(=O)[C@H](Cc2c[nH]c3ccccc23)NC(=O)[C@@H]2CC[C@@H](O)CN2C(=O)[C@H](Cc2ccncc2)NC1=O [SEQ ID NO. 41] (cyclo([4Pal][Pip(5R-OH)]W[dHyp]N[Phe(2-F,4-COOH)][Trp(7-Cl)][αMeS][Phe(4-CONH2)][Phe(2-F,4-COOH)][Sar][Trp(βS-Me,7-OMe)][X1][Nle])) | > 1000 nM | 0.6 nM | 0.12 nM |  |  |
| CCCC[C@@H]1NC(=O)[C@@H]2CC[C@@H](C2)NC(=O)[C@H]([C@@H](C)c2c[nH]c3c(OC)cccc23)NC(=O)CN(C)C(=O)[C@H](Cc2ccc(C(N)=O)cc2)NC(=O)[C@H](Cc2ccc(C(N)=O)cc2)NC(=O)[C@](C)(CO)NC(=O)[C@H](Cc2c[nH]c3c(C#N)cccc23)NC(=O)[C@H](Cc2ccc(C(=O)O)cc2)NC(=O)[C@H](CC(N)=O)NC(=O)[C@H]2C[C@H](O)CN2C(=O)[C@H](Cc2c[nH]c3ccccc23)NC(=O)[C@@H]2CC[C@@H](O)CN2C(=O)[C@H](Cc2ccncc2)NC1=O [SEQ ID NO. 45] (cyclo([4Pal][Pip(5R-OH)]W[dHyp]N[Phe(4-COOH)][Trp(7-CN)][αMeS][Phe(4-CONH2)][Phe(4-CONH2)][Sar][Trp(βS-Me,7-OMe)][X1][Nle])) |  | 0.6 nM |  | > 1000 nM | 0.01 nM |
